Entries after “also recorded” stand apart in the source; their conditions may differ.
Assays:
[1] = system: P388 murine leukemia cell lines; assay: In vitro proliferation of P388 cells (MTT); format: cell-based; details: 48-h exposure; for IC50: value in parentheses
Experimental: (§1) Discodermolide and discodermolide analogs were analyzed as to their effects on proliferation of A549 human adenocarcinoma and P388 murine leukemia cell lines. P388 cells were obtained from Dr. R. Camalier, National Cancer Institute, Bethesda, MD, and A549 cells were obtained from American Type Culture Collection, Rockville, MD. All cell lines were maintained in tissue culture medium (TCM; Roswell Park Memorial Institute RPMI 1640 supplemented with 100 U/mL penicillin, […], 60 […], 18 mM HEPES, 0.05 mg/mL gentamicin (Life Technologies, Gaithersburg, MD) and 10% fetal bovine serum) and cultured in plastic tissue culture flasks at 37° C. in humidified air containing 5% CO2. Stock cultures of P388 cells were subcultured 1:20 in fresh TCM every 2 to 3 days. Stock cultures of A549 cells were subcultured 1:10 every 3 to 4 days. To assess the antiproliferative effects of agents against the cells, 200 μL cultures (96-well tissue culture plates, Nunc, Denmark) were established at 1 ×10^5 cells/mL in TCM or TCM containing the test agent at 0.03-5.0 μg/mL. After 48-h exposures, P388 cells were enumerated using 3-[4,5-dimethylthiazol-2-yl]-2,5-diphenyltetrazolium bromide (MTT) as described in the literature (M. C. Alley, et al., Cancer Res. 48:589, 1988). A549 cells were enumerated in the same manner after 72 hours exposure. The results were expressed as percent inhibition compared to the negative (no drug) control. Positive drug controls of varying dilutions of 5-fluorouracil and adriamycin (Sigma Chemical Co., St Louis, MO) were included to monitor drug sensitivity of the cell line.
(§2) To quantitate the effects on cell proliferation and resulting IC50 values, 75 μL of warm growth media containing 5 mg/mL MTT is added to each well, cultures returned to the incubator, and left undisturbed for 3 hours. To spectrophotometrically quantitate formation of reduced formazan, plates are centrifuged (500×g, 10 minutes), culture fluids removed by aspiration, and 200 μL of acidified isopropanol (2 mL concentrated HCl /liter isopropanol) added per well. The absorbance of the resulting solutions is measured in a plate reader (TECAN Spectra SLT; TECAN U.S., Research Triangle Park, N.C.) at 570 nm and a 650 nm reference filter. The absorbance of test wells is divided by the absorbance of drug-free wells, and the concentration of agent that results in 50% of the absorbance of untreated cultures (IC50) is determined by linear regression of logit-transformed data (D. J. Finney, Statistical Method in Biological Assay, third ed., pp. 316-348, Charles Griffin Co., London, 1978). A linear relationship between tumor cell number and formazan production has been routinely observed over the range of cell densities observed in these experiments. The two standard drug controls (indicated above) are included in each assay as a check to monitor the drug sensitivity of each of the cell lines and IC50 values are determined for each drug-cell combination.

[2] = system: A549 human adenocarcinoma; assay: In vitro proliferation of A549 cells (MTT); format: cell-based; details: 72 hours exposure; for IC50: value in parentheses
Experimental: as §1, §2

[3] = system: purified bovine brain tubulin; assay: Tubulin polymerization (optical density at 350 nm); format: biochemical; parameters: key to Purified tubulin polymerization by 10 μM / Purified tubulin polymerization at 10 μM: −: no effect; +/−: minimal or questionable effect; +: weak effect; ++: strong effect; +++: very strong effect equivalent to discodermolide; details: 10 μM compound; for Purified tubulin polymerization by 10 μM / Maximum polymerization relative to that induced by discodermolide / Purified tubulin polymerization at 10 μM: 1 mg/mL tubulin; for Purified tubulin polymerization by 10 μM / Purified tubulin polymerization at 10 μM: subjective rating; for Purified tubulin polymerization by 10 μM: Table 11; for Purified tubulin polymerization at 10 μM: Table 12
Experimental: Compounds were tested at 10 μM with 1 mg/mL tubulin. The temperature was varied during the course of the experiment as follows: the experiment was begun with an initial temperature of 4° C. and held for 1 minute; the temperature was then increased to 35° C. at a rate of 1° C./minute, held at 35° C. for 1 minute, decreased to 4° C. at a rate of 2° C/minute, and finally held at 4° C. for 14 minutes. The curves shown are for compounds: discodermolide (I); 2-desmethyldiscodermolide (II); 19-desaminocarbonyldiscodermolide (III); 2-epidiscodermolide (IV); and 3-deoxy-2A-discodermolide (VI).
Compounds were tested at 10 μM with 1 mg/mL tubulin. The temperature was varied during the course of the experiment as follows: the experiment was begun with an initial temperature of 4° C. and held for 1 minute; the temperature was then increased to 35° C. at a rate of 1° C./minute, held at 35° C. for 1 minute, decreased to 4° C. at a rate of 2° C./minute, and finally held at 4° C. for 14 minutes. The curves shown are for discodermolide (I); 8,21,23-hexahydrodiscodermolide (XII) and 7-deoxy-8,21,23-hexahydrodiscodermolide (XIII).
Polymerization of purified bovine brain tubulin (Cytoskeleton Inc., Denver, Colo.) was followed by changes in the optical density of tubulin solutions at 350 nm in a Hitachi U-3010 spectrophotometer equipped with a SPR-10 electronic thermostatted cell holder. Stock solutions of tubulin were diluted on ice in G-PEM buffer (1 mM GTP, 80 mM PIPES, 1 mM EGTA, 0.5 mM magnesium chloride; pH 6.8) to a final concentration of 1 mg/mL. The instrument was zeroed on this solution at 4° C. Discodermolide, and its analogs, were then added to the tubulin solution to a final concentration of 10 μM, quickly mixed, and the absorbance monitored over a period of 61 minutes. Within this time the temperature of the thermoelectric cell holder was held at 4° C. for 1 minute, increased to 35° C. at a rate of 1° C./minute, reduced back to 4° C. at a rate of 2° C./minute, and held at 4° C. for an additional 14 minutes.

A549 human lung cells = assay: Cell cycle progression by flow cytometry; format: cell-based
Experimental: Cell cycle studies were initiated in order to pinpoint a specific phase within the cell cycle in which discodermolide analogs were exerting their antiproliferative effect. A549 human lung cells were used as cell cycle targets to compare the effects of discodermolide and discodermolide analogs on perturbation of the cell cycle. Cell cycle analyses were performed as follows: A549 cells were incubated at 37° C. in 5% CO2 in air in the presence or absence of varying concentrations of discodermolide or discodermolide analogs for 24 hr. Cells were harvested, fixed in ethanol, washed, and stained with 0.02 mg/mL of propidium iodide (P.I.) together with 0.1 mg/mL of RNAse A. Stained preparations were analyzed on a Coulter EPICS ELITE flow cytometer with 488 nm excitation. Fluorescence measurements and resulting DNA histograms were collected from at least 10,000 P.I. stained cells at an emission wavelength of 690 nm. Raw histogram data was further analyzed using a cell cycle analysis program (Multicycle, Phoenix Flow Systems).

| Structure (SMILES) | IC50 P388 cells [1] [µg/mL] | IC50 [1] [nM] | IC50 A549 cells [2] [µg/mL] | IC50 [2] [nM] | Level of tubulin polymerization induced [3] | Stability of polymerized tubulin when held at 4° C. [3] | Purified tubulin polymerization by 10 μM [3] | Cell cycle effects (A549 human lung cells; concentration not given) | Maximum polymerization relative to that induced by discodermolide [3] | Purified tubulin polymerization at 10 μM [3] | Cell population accumulated in the G2/M phase (A549 human lung cells; 1000 nM, 24 hour incubation) | Cell cycle effects (A549 human lung cells; concentrations lower than 1000 nM) | Cell cycle effects (100 nM) (A549 human lung cells; 100 nM, 24 hr, A549) |
| --- | --- | --- | --- | --- | --- | --- | --- | --- | --- | --- | --- | --- | --- |
| C=CC=CC(C)C(OC(N)=O)C(C)C(O)C(C)CC(C)=CC(C)C(O)C(C)C=CC(O)CC1OC(=O)CC(O)C1C (stereo not drawn) [2-Desmethyldiscodermolide (II), 2-desmethyldiscodermolide] | 0.1 | 172 | 0.07 | 120 | almost equivalent to those of the parent compound discodermolide | stable | ++ | very strong apoptotic (sub-G1 peak) effects as well as an increase in the percentage of cells residing in the G2/M phase | – | – | – | – | – |
| C=C/C=C\[C@H](C)[C@H](OC(N)=O)[C@@H](C)[C@H](O)[C@@H](C)C/C(C)=C\[C@H](C)[C@@H](O)[C@@H](C)/C=C\[C@@H](O)C[C@@H]1OC(=O)[C@@H](C)[C@@H](O)[C@H]1C [2-Epidiscodermolide (IV), 2-epidiscodermolide] | 0.08 | 134 | 0.04 | 67 | low levels | relatively stable | ++ | Apoptosis and weak G2/M block | 30-50% | – | – | – | – |
| CCCCC(C)C(OC(N)=O)C(C)C(O)C(C)CC(C)=CC(C)C(O)C(C)CCCCC1OC(=O)C(C)C(O)C1C (stereo not drawn) [7-deoxy-8,21,23-hexahydrodiscodermolide] | 0.18 | 309 | 0.22 | 377 | low levels | relatively stable | – | – | 39% | ++ | Approximately 50% | did not produce any cell cycle effects | – |
| CCCCC(C)C(OC(N)=O)C(C)C(O)C(C)CC(C)=CC(C)C(O)C(C)CCC(O)CC1OC(=O)C(C)C(O)C1C (stereo not drawn) [8,21,23-Hexahydrodiscodermolide (XII), 8,21,23-hexahydrodiscodermolide] | 0.02 | 33.8 | 0.04 | 67.7 | strong | relatively stable | – | – | approximately 80% | +++ | – | – | small percent increase in the cells accumulated at the G2/M phase; also recorded: high percentage of apoptosis |
| C=CC=CC(C)C(O)C(C)C(O)C(C)CC(C)=CC(C)C(O)C(C)C=CC(O)CC1OC(=O)C(C)C(O)C1C (stereo not drawn) [19-Desaminocarbonyldiscodermolide (III), 19-desaminocarbonyldiscodermolide] | 0.07 | 128 | 0.045 | 74 | low levels | relatively stable | + | Strong apoptosis; moderate G2/M block | 30-50% | – | – | – | – |

— patent US6495594B2, “Biologically active analogs of discodermolide” (Harbor Branch Oceanographic Institution, Inc., priority 2000, dated 2002)
